# From PMC6177136, “Hybrid topoisomerase I and HDAC inhibitors as dual action anticancer agents” (PLoS ONE, 2018)
# Assays:
# A431 = experiment: Cytotoxicity assay (SRB, 72 h) A431; format: cell-based, Human; settings: Homo sapiens, A-431, read-out: IC50 ± SD A431
# DU145 = experiment: Cytotoxicity assay (SRB, 72 h) DU145; format: cell-based, Human; settings: Homo sapiens, DU-145, read-out: IC50 ± SD DU145
# HepG2 = experiment: Cytotoxicity assay (SRB, 72 h) HepG2; format: cell-based, Human; settings: Homo sapiens, HepG2, read-out: IC50 ± SD HepG2
# HDAC2 = HDAC2 (Homo sapiens, UniProt Q92769); experiment: HDAC profiling HDAC2; format: biochemical; settings: purified isoform, 10 concentrations from 10 μM, triplicate
# Chain of HDAC2 (Q92769 whole entry, canonical isoform): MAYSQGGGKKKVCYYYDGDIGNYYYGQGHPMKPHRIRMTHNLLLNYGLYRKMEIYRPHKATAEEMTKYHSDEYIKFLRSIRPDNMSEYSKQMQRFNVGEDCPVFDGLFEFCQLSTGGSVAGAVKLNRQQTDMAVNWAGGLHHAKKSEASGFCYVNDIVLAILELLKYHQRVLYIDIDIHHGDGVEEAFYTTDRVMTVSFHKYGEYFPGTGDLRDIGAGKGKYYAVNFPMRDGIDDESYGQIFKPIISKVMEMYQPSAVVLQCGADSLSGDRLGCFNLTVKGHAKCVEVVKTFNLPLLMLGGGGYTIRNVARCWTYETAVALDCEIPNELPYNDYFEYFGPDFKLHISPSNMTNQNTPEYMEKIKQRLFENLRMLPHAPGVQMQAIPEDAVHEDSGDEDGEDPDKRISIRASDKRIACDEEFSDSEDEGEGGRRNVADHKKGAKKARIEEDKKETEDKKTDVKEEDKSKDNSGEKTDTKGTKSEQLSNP
# HDAC10 = HDAC10 (Homo sapiens, UniProt Q969S8); experiment: HDAC profiling HDAC10; format: biochemical; settings: purified isoform, 10 concentrations from 10 μM, triplicate
# Chain of HDAC10 (Q969S8 whole entry, canonical isoform): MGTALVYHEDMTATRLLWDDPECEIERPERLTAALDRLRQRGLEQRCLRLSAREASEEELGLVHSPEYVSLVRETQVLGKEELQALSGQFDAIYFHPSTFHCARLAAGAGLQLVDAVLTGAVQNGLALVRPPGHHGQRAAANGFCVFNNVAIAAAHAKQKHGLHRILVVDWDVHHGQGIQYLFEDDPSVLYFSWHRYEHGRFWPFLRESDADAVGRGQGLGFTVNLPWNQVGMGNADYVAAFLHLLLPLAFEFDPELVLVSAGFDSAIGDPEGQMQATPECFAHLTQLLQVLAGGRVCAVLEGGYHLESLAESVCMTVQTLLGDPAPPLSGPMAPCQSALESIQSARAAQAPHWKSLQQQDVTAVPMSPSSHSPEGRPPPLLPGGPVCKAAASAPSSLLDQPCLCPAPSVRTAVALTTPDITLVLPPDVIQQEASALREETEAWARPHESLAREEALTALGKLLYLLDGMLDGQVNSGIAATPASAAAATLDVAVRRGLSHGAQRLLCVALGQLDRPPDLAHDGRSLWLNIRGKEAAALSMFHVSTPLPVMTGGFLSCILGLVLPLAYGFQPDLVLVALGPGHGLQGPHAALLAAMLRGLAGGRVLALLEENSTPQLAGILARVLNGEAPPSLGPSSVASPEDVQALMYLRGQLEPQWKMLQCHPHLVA
# JECO-1 = experiment: Cytotoxicity assay (MTT, 72 h) JECO-1; format: cell-based, Human; settings: Homo sapiens; 72 h, MTT assay; read-out: IC50 ± SD JECO-1
# L-428 = experiment: Cytotoxicity assay (MTT, 72 h) L-428; format: cell-based, Human; settings: Homo sapiens, L-428; 72 h, MTT assay; read-out: IC50 ± SD L-428
# Method: (§1) Human tumor cells were seeded in 96-well cell culture plastic plates, allowed to attach, and exposed to scalar concentrations of the test compounds.
# KM-H2 = experiment: Cytotoxicity assay (MTT, 72 h) KM-H2; format: cell-based, Human; settings: Homo sapiens, KM-H2; 72 h, MTT assay; read-out: IC50 ± SD KM-H2
# DG-75 = experiment: Cytotoxicity assay (MTT, 72 h) DG-75; format: cell-based, Human; settings: Homo sapiens, DG-75; 72 h, MTT assay; read-out: IC50 ± SD DG-75
# THP1 = experiment: Cytotoxicity assay (MTT, 72 h) THP1; format: cell-based; settings: Homo sapiens, THP-1, read-out: IC50 ± SD THP1
# Jurkat-cp = experiment: Cytotoxicity assay (MTT, 72 h) Jurkat-cp; format: cell-based; settings: Homo sapiens, read-out: IC50 ± SD Jurkat-cp
# U937 = experiment: Cytotoxicity assay (MTT, 72 h) U937; format: cell-based; settings: Homo sapiens, U-937, read-out: IC50 ± SD U937
# RAMOS = experiment: Cytotoxicity assay (MTT, 72 h) RAMOS; format: cell-based; settings: Homo sapiens, read-out: IC50 ± SD RAMOS
# RPMI-8226 = experiment: Cytotoxicity assay (MTT, 72 h) RPMI-8226; format: cell-based; settings: Homo sapiens, read-out: IC50 ± SD RPMI-8226
# Method: as §1
# H929 = experiment: Cytotoxicity assay (MTT, 72 h) H929; format: cell-based; settings: Homo sapiens, NCI-H929, read-out: IC50 ± SD H929
# MM404 = experiment: Cytotoxicity assay, primary mesothelioma MM404; format: cell-based, Human; settings: Homo sapiens; epithelioid, 72 h, SBR assay; read-out: IC50 ± SD MM404
# MM481 = experiment: Cytotoxicity assay, primary mesothelioma MM481; format: cell-based, Human; settings: Homo sapiens; epithelioid, 72 h, SBR assay; read-out: IC50 ± SD MM481
# MM487 = experiment: Cytotoxicity assay, primary mesothelioma MM487; format: cell-based, Human; settings: Homo sapiens, MM487; biphasic, 72 h, SBR assay; read-out: IC50 ± SD MM487
# MM491 = experiment: Cytotoxicity assay, primary mesothelioma MM491; format: cell-based, Human; settings: Homo sapiens; biphasic, 72 h, SBR assay; read-out: IC50 ± SD MM491
# MM472 = experiment: Cytotoxicity assay, primary mesothelioma MM472; format: cell-based, Human; settings: Homo sapiens; sarcomatoid, 72 h, SBR assay; read-out: IC50 ± SD MM472
# [1] = test system: primary malignant pleural mesothelioma (MPM) cell lines; experiment: Primary malignant pleural mesothelioma (MPM) cell lines (summary); format: cell-based; settings: Homo sapiens, span over the cell line panel, 72 h, read-out: IC50 across primary mesothelioma cell lines (Table 7)
# NCI-H460 NSCLC cells = experiment: FACS analysis of cell cycle and apoptosis; format: cell-based, Human; settings: 72 h at own IC80 dose, PI staining
# Acetylated Histone H4 = experiment: Western blot, acetylation of histone H4 in NCI-H460 cells; format: cell-based, Human; settings: 24 h; SN38 0.05 μM, SAHA 5 μM, 3b and 3d 0.125–0.2–0.5 μM
# Method: (§2) The supernatant, containing the total proteins extracts, were transferred in new vials. The protein concentration was measured by Bradford Protein Assay. Equal amounts of proteins for each sample were then resolved by SDS-PAGE and loaded on 10–12% polyacrilamide gels. The proteins were then transferred on nitrocellulose membranes. Molecular weights were estimated based upon the relative migration with molecular weight protein markers.
# (§3) The non-specific binding was blocked by incubation of membranes in TBS-tween (25 mM Tris, 150 mM NaCl, 0.1% Tween 20) with 5% nonfat dry milk (BIORAD, Milan) for 60 minutes. Subsequently, the membrane was incubated overnight with primary antibodies: anti-Histone H4 (Millipore, 1:500), anti-acetyl-H4 (Santa Cruz, 1:1000) anti-p21 (Santa Cruz, 1:1000), anti-acetyl-tubulin (abcam, 1:1000), anti-α-tubulin (Sigma, 1:5000), anti β-actin (Sigma, 1:5000) and anti-Topoisomerase 1 (Santa Cruz, 1:500). After three washes with TBST blots were incubated with HRP-coniugated secondary anti-mouse and anti-rabbit (Santa Cruz, 1:5000) 1 hour at room temperature. After three washes with TBST the blots were developed with ECL substrate (GE Healthcare) and chemiluminescence detected by ChemiDoc Imaging System (Biorad). The optical density of the protein bands detected by western blotting was normalized on α -tubulin levels and analyzed by ChemiDoc software (Biorad). […]
# Top1 = experiment: Western blot, Top1 expression in NCI-H460 cells; format: cell-based, Human; settings: 24 h; SAHA 5 μM, SN38 0.05 μM, 3d 0.125–0.2–0.5 μM
# Method: as §2, §3
# p53 = experiment: Western blot, p53 in NCI-H460 cells; format: cell-based, Human; settings: 24 h; SAHA 5 μM, SN38 0.05 μM, 3d 0.125–0.2–0.5 μM
# Method: as §2
# (§4) The non-specific binding was blocked by incubation of membranes in TBS-tween (25 mM Tris, 150 mM NaCl, 0.1% Tween 20) with 5% nonfat dry milk (BIORAD, Milan) for 60 minutes. Subsequently, the membrane was incubated overnight with primary antibodies: anti-Histone H4 (Millipore, 1:500), anti-acetyl-H4 (Santa Cruz, 1:1000) anti-p21 (Santa Cruz, 1:1000), anti-acetyl-tubulin (abcam, 1:1000), anti-α-tubulin (Sigma, 1:5000), anti β-actin (Sigma, 1:5000) and anti-Topoisomerase 1 (Santa Cruz, 1:500). After three washes with TBST blots were incubated with HRP-coniugated secondary anti-mouse and anti-rabbit (Santa Cruz, 1:5000) 1 hour at room temperature. After three washes with TBST the blots were developed with ECL substrate (GE Healthcare) and chemiluminescence detected by ChemiDoc Imaging System (Biorad). The optical density of the protein bands detected by western blotting was normalized on α -tubulin levels and analyzed by ChemiDoc software (Biorad).
# (§5) Cells were lysed in 0.5% NP-40 and 40 μg of total proteins were loaded on NuPAGE 4–12% (Invitrogen), transferred to a nitrocellulose paper and probed with specific antibodies.
# p16 = experiment: Western blot, p16 in NCI-H460 cells; format: cell-based, Human; settings: 24 h; SAHA 5 μM, SN38 0.05 μM, 3d 0.125–0.2–0.5 μM
# Method: as §2, §4, §5
# CycD1 = experiment: Western blot, CycD1 in NCI-H460 cells; format: cell-based, Human; settings: 24 h; SAHA 5 μM, SN38 0.05 μM, 3d 0.125–0.2–0.5 μM
# Method: as §2, §4, §5
structure (smiles),measurement,setting,value
"CC[C@@]1(O)C(=O)OCc2c1cc1n(c2=O)Cc2c-1nc1ccc(O)cc1c2C=NOCCCCCC(=O)NO [Compound 3d, 6-(10-hydroxycamptothecin-7-ylmethyleneaminooxy)-hexanoic acid hydroxyamide]",IC50,A431,140 ± 20 nM
same,IC50,DU145,70 ± 3 nM
same,IC50,HepG2,110 ± 30 nM
same,IC50,HDAC2,93.3 nM
same,IC50,HDAC10,224 nM
same,IC50,JECO-1,23 ± 6 nM
same,IC50,L-428,430 ± 70 nM
same,IC50,KM-H2,390 ± 100 nM
same,IC50,DG-75,1900 ± 200 nM
same,IC50,THP1,220 ± 90 nM
same,IC50,Jurkat-cp,230 ± 50 nM
same,IC50,U937,180 ± 50 nM
same,IC50,RAMOS,990 ± 100 nM
same,IC50,RPMI-8226,4100 ± 1400 nM
same,IC50,H929,1100 ± 400 nM
same,IC50,MM404,1400 ± 300 nM
same,IC50,MM481,11700 ± 1200 nM
same,IC50,MM487,200 ± 50 nM
same,IC50,MM491,870 ± 300 nM
same,IC50,MM472,48 ± 10 nM
same,IC50,[1],50 to 11000 nM
same,G0/1 (%),NCI-H460 NSCLC cells,12.1%
same,G2/M (%),NCI-H460 NSCLC cells,11.9%
same,S (%),NCI-H460 NSCLC cells,76.0%
same,Sub-G0/1 (%),NCI-H460 NSCLC cells; apoptosis,15.2%
same,accumulation of acetylated histone H4,Acetylated Histone H4,H4 and tubulin acetylation in a dose dependent manner
same,expression of Top1,Top1,drastically reduced the expression of Top1
same,p53 activation,p53,induced p53 activation
same,P16 regulation,p16,didn’t show any effect
same,CycD1 regulation,CycD1,didn’t show any effect
